Measurements taken from PubChem BioAssay (NCI).
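Each compound was tested at five concentrations against cells in 96-well plates for 48 hours. Definition used: TGI = concentration required for complete inhibition of growth.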

Key:
Assay in all cases: growth of human tumour cells (NCI), 48 h
OVCAR-4 ovarian = tested on: OVCAR-4 ovarian
HOP-62 NSCLC = tested on: HOP-62 NSCLC
IGROV1 ovarian = tested on: IGROV1 ovarian
SK-MEL-28 melanoma = tested on: SK-MEL-28 melanoma
SR leukemia = tested on: SR leukemia
NCI-H23 lung = tested on: NCI-H23 lung
MDA-N = tested on: MDA-N
EKVX NSCLC = tested on: EKVX NSCLC
SNB-19 CNS = tested on: SNB-19 CNS
A549 NSCLC = tested on: A549 NSCLC
SK-MEL-5 melanoma = tested on: SK-MEL-5 melanoma
T-47D breast = tested on: T-47D breast
RPMI-8226 leukemia = tested on: RPMI-8226 leukemia
KM12 colon = tested on: KM12 colon
786-0 renal = tested on: 786-0 renal
DU-145 prostate = tested on: DU-145 prostate
MALME-3M melanoma = tested on: MALME-3M melanoma
COLO 205 colon = tested on: COLO 205 colon
CCRF-CEM leukemia = tested on: CCRF-CEM leukemia
NCI-H226 lung = tested on: NCI-H226 lung
LOX IMVI melanoma = tested on: LOX IMVI melanoma
SK-MEL-2 melanoma = tested on: SK-MEL-2 melanoma
A498 renal = tested on: A498 renal
SNB-75 CNS = tested on: SNB-75 CNS
NCI/ADR-RES ovarian = tested on: NCI/ADR-RES ovarian
HOP-92 NSCLC = tested on: HOP-92 NSCLC
HCT-15 colon = tested on: HCT-15 colon
MOLT-4 leukemia = tested on: MOLT-4 leukemia
SW-620 colon = tested on: SW-620 colon
UACC-257 melanoma = tested on: UACC-257 melanoma
UACC-62 melanoma = tested on: UACC-62 melanoma
TK-10 renal = tested on: TK-10 renal
HS 578T breast = tested on: HS 578T breast
NCI-H460 lung = tested on: NCI-H460 lung
UO-31 renal = tested on: UO-31 renal
U251 CNS = tested on: U251 CNS
ACHN renal = tested on: ACHN renal
SK-OV-3 ovarian = tested on: SK-OV-3 ovarian
RXF 393 renal = tested on: RXF 393 renal
CAKI-1 renal = tested on: CAKI-1 renal
MDA-MB-231 breast = tested on: MDA-MB-231 breast
PC-3 prostate = tested on: PC-3 prostate
SF-539 CNS = tested on: SF-539 CNS
OVCAR-3 ovarian = tested on: OVCAR-3 ovarian
HT29 colon = tested on: HT29 colon
NCI-H522 lung = tested on: NCI-H522 lung
MDA-MB-435 = tested on: MDA-MB-435
OVCAR-8 ovarian = tested on: OVCAR-8 ovarian
HCC-2998 colon = tested on: HCC-2998 colon
HL-60(TB) leukemia = tested on: HL-60(TB) leukemia
SF-295 CNS = tested on: SF-295 CNS
K-562 leukemia = tested on: K-562 leukemia
HCT-116 colon = tested on: HCT-116 colon
MCF7 breast = tested on: MCF7 breast
M14 melanoma = tested on: M14 melanoma
SN12C renal = tested on: SN12C renal
SF-268 CNS = tested on: SF-268 CNS
OVCAR-5 ovarian = tested on: OVCAR-5 ovarian

Measured: TGI

CCn1c(O)c(C=Nc2ccccc2)s/c1=N/Nc1ncc(CC(=O)Nc2ccccc2C)s1
> 100 µM: OVCAR-4 ovarian | HOP-62 NSCLC | IGROV1 ovarian | SK-MEL-28 melanoma | SR leukemia | NCI-H23 lung | MDA-N | EKVX NSCLC | SNB-19 CNS | A549 NSCLC | SK-MEL-5 melanoma | T-47D breast | RPMI-8226 leukemia | KM12 colon | 786-0 renal | DU-145 prostate | MALME-3M melanoma | COLO 205 colon | CCRF-CEM leukemia | NCI-H226 lung | LOX IMVI melanoma | SK-MEL-2 melanoma | A498 renal | SNB-75 CNS | NCI/ADR-RES ovarian | HOP-92 NSCLC | HCT-15 colon | MOLT-4 leukemia | SW-620 colon | UACC-257 melanoma | UACC-62 melanoma | TK-10 renal | HS 578T breast | NCI-H460 lung | UO-31 renal | U251 CNS | ACHN renal | SK-OV-3 ovarian | RXF 393 renal | CAKI-1 renal | MDA-MB-231 breast | PC-3 prostate | SF-539 CNS | OVCAR-3 ovarian | HT29 colon | NCI-H522 lung | MDA-MB-435 | OVCAR-8 ovarian | HCC-2998 colon | HL-60(TB) leukemia | SF-295 CNS | K-562 leukemia | HCT-116 colon | MCF7 breast | M14 melanoma | SN12C renal | SF-268 CNS | OVCAR-5 ovarian

CC(C)(C)COC1C2(OCCO2)C2CCC1(C)C2(C)C (stereo not drawn)
38 µM: LOX IMVI melanoma
59.2 µM: HOP-62 NSCLC
35.2 µM: SF-295 CNS
44.2 µM: HL-60(TB) leukemia
50.2 µM: SK-MEL-2 melanoma
40.6 µM: SR leukemia
37.3 µM: MCF7 breast
70.2 µM: HOP-92 NSCLC
34.3 µM: U251 CNS
54.5 µM: PC-3 prostate
65.1 µM: UO-31 renal
34.5 µM: 786-0 renal
42.1 µM: ACHN renal
> 100 µM: OVCAR-4 ovarian | IGROV1 ovarian | SK-MEL-28 melanoma | NCI-H23 lung | MDA-N | SK-MEL-5 melanoma | DU-145 prostate | NCI-H226 lung | A498 renal | NCI/ADR-RES ovarian | UACC-62 melanoma | TK-10 renal | NCI-H460 lung | SK-OV-3 ovarian | CAKI-1 renal | MDA-MB-231 breast | SF-539 CNS | MDA-MB-435 | HCC-2998 colon | M14 melanoma | SF-268 CNS
41.7 µM: SNB-19 CNS | RPMI-8226 leukemia
55.9 µM: OVCAR-8 ovarian
67.6 µM: SNB-75 CNS
79.9 µM: EKVX NSCLC
50 µM: HCT-15 colon
33.3 µM: OVCAR-3 ovarian
68.5 µM: T-47D breast
64 µM: MALME-3M melanoma
37.9 µM: SW-620 colon
91.1 µM: COLO 205 colon
73.8 µM: OVCAR-5 ovarian
37.8 µM: CCRF-CEM leukemia
35.7 µM: K-562 leukemia
70.5 µM: UACC-257 melanoma
42 µM: KM12 colon
36 µM: RXF 393 renal
74.4 µM: HT29 colon
48 µM: A549 NSCLC
90.1 µM: HS 578T breast
39.7 µM: MOLT-4 leukemia
